This is an account of results in ChEMBL document CHEMBL5230140, “A retrospective overview of PHGDH and its inhibitors for regulating cancer metabolism” (Eur J Med Chem, 2021).

The first experiment has as its target T1, D-3-phosphoglycerate dehydrogenase (Homo sapiens, UniProt O43175).
T1 sequence (O43175 whole entry): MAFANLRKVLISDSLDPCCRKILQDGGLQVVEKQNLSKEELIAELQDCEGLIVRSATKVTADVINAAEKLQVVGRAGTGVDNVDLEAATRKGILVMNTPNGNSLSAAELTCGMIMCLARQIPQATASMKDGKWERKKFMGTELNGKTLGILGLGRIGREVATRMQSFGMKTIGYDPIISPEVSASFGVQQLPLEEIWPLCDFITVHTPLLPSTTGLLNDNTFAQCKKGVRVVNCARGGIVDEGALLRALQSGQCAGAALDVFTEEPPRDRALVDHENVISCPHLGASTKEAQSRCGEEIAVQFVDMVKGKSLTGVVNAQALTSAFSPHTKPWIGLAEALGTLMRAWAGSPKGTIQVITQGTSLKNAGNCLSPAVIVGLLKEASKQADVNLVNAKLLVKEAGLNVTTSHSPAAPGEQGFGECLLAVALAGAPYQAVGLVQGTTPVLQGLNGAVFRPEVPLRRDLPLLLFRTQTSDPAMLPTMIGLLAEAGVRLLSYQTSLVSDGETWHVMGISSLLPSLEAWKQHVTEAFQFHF
The experiment in a line: Inhibition of human PHGDH using 3-PG as substrate by fluorescence based analysis.
A word on the IC50: it is the concentration that inhibits the measured activity by half. Read a low IC50 as inhibition by little substance. In the case of `O=C(c1ccc(Cl)cc1)N1CCOCC1` [(4-CHLOROPHENYL)(MORPHOLINO)METHANONE], the IC50 is 10.4 µM.

For the next experiment, the target named is T1, D-3-phosphoglycerate dehydrogenase. The experiment in a line: Binding affinity to PHGDH (unknown origin) by isothermal titration calorimetry. On the technique in general: Isothermal titration calorimetry measures the heat released or taken up as one component is titrated into another.
What is called Kd is the free concentration of one partner at which half of the binding sites on the other are occupied at equilibrium, for simple one-to-one binding. The low end stands for a tighter complex, the high end for a looser complex. With `NC(=O)c1cc2ccccc2s1`, the Kd came out at 470 µM.

Another experiment shares this target. The experiment in a line: Binding affinity to human PHGDH expressed in Escherichia coli BL21 incubated for 30 mins by MST assay.
In the case of `COC(=O)[C@H](C)N1Cc2c(O)c(O)c(O)c(C)c2C1=O`, the Kd worked out at 15.2 µM.

For a further experiment the target is unchanged. As to the kind of experiment: Inhibition of human PHGDH by fluorescence based analysis.
`S=C(SSC(=S)N1CCOCC1)N1CCOCC1`: it took 0.21 µM to reach half-maximal inhibition (IC50).
The same measure, in the same setting: the value for `S=C(SSC(=S)N(C1CCCCC1)C1CCCCC1)N(C1CCCCC1)C1CCCCC1` was 1.39 µM; that for `CC1CCC(C)N1C(=S)SSC(=S)N1C(C)CCC1C` (configuration not stated) was 0.42 µM; that for `S=C(Nc1ccccc1)SSC(=S)Nc1ccccc1` was 0.36 µM.
Still for that read-out and setting: then `CN1CCN(C(=S)SCSC(=S)N2CCNCC2)CC1`, with 67.3 µM; and `S=C(SSC(=S)N1CCN(c2ccccc2)CC1)N1CCN(c2ccccc2)CC1`, with 0.41 µM.
In the case of `S=C(SSC(=S)N1CCN(C2CCCCC2)CC1)N1CCN(C2CCCCC2)CC1`, the IC50 stood at 0.57 µM.
`S=C(SSC(=S)N1CCN(Cc2ccccc2)CC1)N1CCN(Cc2ccccc2)CC1`: the IC50 turned out to be 22.5 µM.
Compound `CN(C(=S)SSC(=S)N(C)c1ccccc1)c1ccccc1` came in with an IC50 of 0.42 µM.
The compound `CCN(CC)C(=S)SCSC(=S)N(CC)CC` yielded an IC50 of 45.9 µM.
Compound `CN1CCN(C(=S)SSC(=S)N2CCN(C)CC2)CC1` registered an IC50 of 0.17 µM.
Regarding `S=C(SSC(=S)N1CCSCC1)N1CCSCC1`, the IC50 was determined as 0.34 µM.
Still for that read-out and setting: then `CC1CCN(C(=S)SSC(=S)N2CCC(C)CC2)CC1`, with 0.58 µM.
`CN(C(=S)SSC(=S)N(C)C1CCCCC1)C1CCCCC1` came in with an IC50 of 1.01 µM.
In turn, `S=C(SSC(=S)N1CCc2ccccc2C1)N1CCc2ccccc2C1` came in with an IC50 of 0.38 µM.
Consider `CCN(CC)C(=O)CSC(=S)N(CC)CC` [(DIETHYLCARBAMOYL)METHYLENE DIETHYLCARBAMODITHIOATE], for which the IC50 is greater than 1000 µM.
Still for that read-out and setting: the value for `CCN(CC)C(=S)CSC(=S)N(CC)CC` [(DIETHYLTHIOCARBAMOYL)METHYLENE DIETHYLCARBAMODITHIOATE] was 36.4 µM.
Same read-out and setting: then `S=C(SSC(=S)N1CCCCC1)N1CCCCC1` [BIS(PIPERIDINYLTHIOCARBONYL)DISULFIDE], with 0.51 µM.

The next experiment has the same target. As to the kind of experiment: Inhibition of human PHGDH using 3-PG as substrate incubated for 60 mins by fluorescence based analysis.
Turning to `O=C(c1cc(-c2ccccc2)n[nH]1)N1CCc2cc(S(=O)(=O)Nc3ncccn3)ccc21`, the IC50 was greater than 100 µM.
Compound `Cc1cc(C)nc(NS(=O)(=O)c2ccc(NC(=O)c3cc(-c4ccccc4O)n[nH]3)cc2)n1` had an IC50 of less than 50 µM.

For another experiment the target is unchanged. The experiment in a line: Inhibition of human PHGDH expressed in Escherichia coli BL21 using 3-PG as substrate incubated for 30 mins by fluorescence based analysis.
Compound `C[C@H]1C(=O)OC([C@@H](O)[C@](C)(O)C2[C@@H](O)CC3C4C[C@H]5O[C@]56[C@@H](O)C=CC(=O)[C@]6(C)C4CC[C@@]32C)[C@@H]1C` (some centres not stated) displayed an IC50 of 1.66 µM.
On the same count and under the same terms, then `COC(=O)[C@H](C)N1Cc2c(O)c(O)c(O)c(C)c2C1=O`, with 9.76 µM.

The next experiment has the same target. As to the kind of experiment: Binding affinity to human PHGDH (3 to 314 residues) expressed in Escherichia coli Rosetta (DE3) by isothermal titration calorimetry.
As to `COc1ccc(NC(C)=O)cc1Cl`, the Kd was found to be 1300 µM.
On the same count and under the same terms, the value for `Cc1cncc(Cc2cccc(CO)c2)n1` was 16600 µM.
